Key:
Format in all cases: in vivo
Chenopodium album [1] = experiment: Test Example 4: herbicidal effect test by treatment of leave and stem in dry field farming (seven days after seeding); conditions: 120 g/10a active ingredient; emulsion sprayed seven days after seeding; evaluated 14 days after treatment
Description: (§1) This test was conducted in a double system per one agent solution concentration area, and the herbicidal rates (%) were determined by the following equation (Math. 1) on 14 days after the treatment with the agents. Herbicidal Rate (%)={1-(Average Dry Weight (g) of Plant of Treated Area)/(Average Dry Weight (g) of Plant of Untreated Area)}×100 [Math. 1]
(§2) Herbicidal Effect Test by Treatment of Leave and Stem in Dry Field Farming
(§3) Pots with a size of 36 cm^2 were filled with a dry field farming soil (alluvium). The soil of the top layer of 1 cm and seeds of weeds, namely southern crabgrass, Echinochloa crus-galli, Chenopodium album and Amaranthus viridis, 20 seeds each, were evenly mixed, and the top layer was gently pressed. Emulsions prepared using the compounds in Table 6 below according to Formulation Example 5 were diluted with water seven days after seeding, and the water-diluted agent solutions were sprayed to the soil surfaces at a ratio of 100 liters per 10 ares. The converted amount of the applied active ingredient corresponded to 120 g per 10 ares. The herbicidal effects were evaluated by the same standard as that in Test Example 1 on 14 days after the treatment with the agents. […] The compound numbers in Table 6 are the same as those in Table 1 and Table 2 above.

Amaranthus viridis [2] = experiment: as above; conditions: 120 g/10a active ingredient; emulsion sprayed seven days after seeding; evaluated 14 days after treatment
Description: as §1, §2, §3

Echinochloa crus-galli [3] = experiment: as above; conditions: 120 g/10a active ingredient; emulsion sprayed seven days after seeding; evaluated 14 days after treatment
Description: as §1, §2, §3

southern crabgrass [4] = experiment: as above; conditions: 120 g/10a active ingredient; emulsion sprayed seven days after seeding; evaluated 14 days after treatment
Description: as §1, §2, §3

Chenopodium album [5] = experiment: Test Example 3: herbicidal effect test by treatment of dry field farming soil (one day after seeding); conditions: 120 g/10a active ingredient, evaluated 14 days after treatment
Summary of the method: (§4)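 Herbicidal rate (%) = {1 − treated/untreated mean plant dry weight} × 100, scored 14 days after spraying, duplicate pots per concentration. Emulsified compound was water-diluted and applied to soil surface one day post-seeding at 120 g a.i. per 10 ares.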

Amaranthus viridis [6] = experiment: as above; conditions: 120 g/10a active ingredient, evaluated 14 days after treatment
Summary of the method: as §4

Echinochloa crus-galli [7] = experiment: as above; conditions: 120 g/10a active ingredient, evaluated 14 days after treatment
Summary of the method: as §4

southern crabgrass [8] = experiment: as above; conditions: 120 g/10a active ingredient, evaluated 14 days after treatment
Summary of the method: as §4

Echinochloa crus-galli [9] = experiment: Test Example 2: herbicidal effect test by treatment during growing period in paddy rice cultivation (seven days after seeding); conditions: 120 g/10a active ingredient, assessed 14 days after treatment, dry weight vs untreated area
Summary of the method: (§5)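 Emulsion formulations, diluted in water, applied dropwise to flooded pots (about 3 cm water) 7 days post-seeding at 120 g a.i./10 ares. Weeds sown 30 seeds each, 0–1 cm deep in puddled paddy soil; greenhouse. Readout: % reduction in plant dry weight vs untreated, day 14, duplicates.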

Scirpus juncoides [10] = experiment: as above; conditions: 120 g/10a active ingredient, assessed 14 days after treatment, dry weight vs untreated area
Summary of the method: as §5

[11] = test system: broad leaf weeds (Lindernia pyxidaria and Monochoria vaginalis); experiment: as above; conditions: 120 g/10a active ingredient, assessed 14 days after treatment, dry weight vs untreated area
Summary of the method: as §5

Echinochloa crus-galli [12] = experiment: Test Example 1: herbicidal effect test by treatment of rice paddy soil (immediately after seeding); conditions: 120 g/10a active ingredient, dry weight vs untreated area, 14 days after treatment
Summary of the method: (§6)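 Values are herbicidal rates (%) derived from average plant dry weight in treated versus untreated pots 14 days after treatment, run in duplicate. Treatment was a water-diluted emulsion dropped into flooded paddy soil right after sowing, at 120 g active ingredient per 10 ares.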

Scirpus juncoides [13] = experiment: as above; conditions: 120 g/10a active ingredient, dry weight vs untreated area, 14 days after treatment
Summary of the method: as §6

[14] = test system: broad leaf weeds (Lindernia pyxidaria and Monochoria vaginalis); experiment: as above; conditions: 120 g/10a active ingredient, dry weight vs untreated area, 14 days after treatment
Summary of the method: as §6

| SMILES | herbicidal effect (herbicidal rate), Chenopodium album (Chenopodium album [1]) | herbicidal effect (herbicidal rate), Amaranthus viridis (Amaranthus viridis [2]) | herbicidal effect (herbicidal rate), Echinochloa crus-galli (Echinochloa crus-galli [3]) | herbicidal effect (herbicidal rate), southern crabgrass (southern crabgrass [4]) | herbicidal rate, Chenopodium album (Chenopodium album [5]) | herbicidal rate, Amaranthus viridis (Amaranthus viridis [6]) | herbicidal rate, Echinochloa crus-galli (Echinochloa crus-galli [7]) | herbicidal rate, southern crabgrass (southern crabgrass [8]) | Herbicidal rate (%) Echinochloa crus-galli (Echinochloa crus-galli [9]) | Herbicidal rate (%) Scirpus juncoides (Scirpus juncoides [10]) | Herbicidal rate (%) Lindernia pyxidaria [11] | Herbicidal rate (%) Monochoria vaginalis [11] | Herbicidal rate (%) Echinochloa crus-galli (Echinochloa crus-galli [12]) | Herbicidal rate (%) Scirpus juncoides (Scirpus juncoides [13]) | Herbicidal rate (%) Lindernia pyxidaria [14] | Herbicidal rate (%) Monochoria vaginalis [14] |
| --- | --- | --- | --- | --- | --- | --- | --- | --- | --- | --- | --- | --- | --- | --- | --- | --- |
| CCC(C)Cn1oc(=O)c(Cc2ccccc2N(C(=O)OCCOC)S(=O)(=O)C(F)(F)F)c1C (centres unmarked) [Compound 1-733] | 60% | 60% | 90% | 80% | 60% | 80% | 100% | 100% | 100% | 90% | 70% | 90% | 100% | 100% | 90% | 90% |
| CSCCn1oc(=O)c(Cc2ccccc2N(C(=O)C(C)C)S(=O)(=O)C(F)(F)F)c1C [Compound 1-336] | 40% | 40% | 90% | 90% | 90% | 90% | 90% | 90% | 90% | 90% | 90% | 90% | 90% | 90% | 90% | 90% |
| Cc1c(Cc2ccccc2N(S(=O)(=O)C(F)(F)F)S(=O)(=O)C(F)(F)F)c(=O)on1CC(C)c1ccccc1 (centres unmarked) [Compound 1-1046] | 0% | 90% | 90% | 60% | – | – | – | – | 90% | 90% | 60% | 90% | 100% | 90% | 70% | 80% |
| CCCOC(=O)N(c1ccccc1Cc1c(C)n(C(C)CC)oc1=O)S(=O)(=O)C(F)(F)F (centres unmarked) [Compound 1-632] | 40% | 40% | 90% | 90% | – | – | – | – | 90% | 90% | 90% | 90% | 90% | 90% | 90% | 90% |
| CC(C)Cn1oc(=O)c(Cc2ccccc2NS(=O)(=O)C(F)(F)F)c1C(F)(F)F [Compound 1-81] | 0% | 0% | 90% | 80% | – | – | – | – | 80% | 90% | 60% | 80% | 90% | 90% | 80% | 80% |
| Cc1c(Cc2ccccc2N(S(=O)(=O)C(F)(F)F)S(=O)(=O)C(F)(F)F)c(=O)on1C(C)c1ccccc1 (centres unmarked) [Compound 1-1030] | 40% | 40% | 90% | 40% | – | – | – | – | 90% | 90% | 90% | 90% | 90% | 90% | 100% | 100% |
| CCCCCC(c1ccccc1)n1oc(=O)c(Cc2ccccc2N(S(=O)(=O)C(F)(F)F)S(=O)(=O)C(F)(F)F)c1C (centres unmarked) [Compound 1-1042] | 40% | 40% | 0% | 50% | – | – | – | – | 60% | 70% | 60% | 60% | 90% | 90% | 90% | 80% |
| Cc1c(Cc2ccccc2NS(=O)(=O)C(F)(F)F)c(=O)on1CCCl [Compound 1-133] | 40% | 0% | 90% | 40% | – | – | – | – | 60% | 80% | 60% | 80% | 80% | 100% | 100% | 100% |
